Reference: patent publication US7576101B2, “Composition for and treatment of demyelinating diseases and paralysis by administration of remyelinating agents” (Elan Pharmaceuticals, Inc., priority 2003, dated 2009)
Read-outs that look alike come from different tables or passages of the source.

Key:
[1] = test system: experimental allergic encephalomyelitis in female Hartley guinea pigs; conditions: for mean clinical score day 70-80 after withdrawal (30 days treatment, 10 days off) vs continued treatment: p<0.05 Mann Whitney rank sum test; for escape from treatment: up to 40 days of treatment, compared with antibodies to α4 integrin
[2] = test system: guinea pig model of CP-EAE; test: Remyelination and functional recovery in guinea pig model of CP-EAE; type: in vivo
Description: The number of lesions showing myelin pallor was divided by the total number of lesions within cross sections of spinal cord taken throughout its length from each animal (FIG. 10) (for the method see Warrington et al., 2000, Proc. Nat'l Acad. Sci. USA 97: 6820-5). […] In contrast, after 20 days of N-[N-(3-pyridinesulfonyl)-L-3,3-dimethyl-4-thiaprolyl]-O-[1-methylpiperazin-4-ylcarbonyl]-L-tyrosine isopropyl ester administration, the frequency of shadow plaques in the spinal cord was increased over saline-treated animals, reaching 68%; after 30 and 40 days, the incidence was 77% and 87%, respectively (p<0.001, 2-way ANOVA with Tukey test).
The overall degree of plaque remyelination in the spinal cord was also measured. […] Total lesion area was determined for each animal by tracing all lesions within all spinal cord sections and summing the areas. Likewise, the total area of remyelination was measured by tracing regions of myelin pallor. FIGS. 10C-F plot the total lesion area against the percentage of remyelination. In saline-treated animals, lesions rarely show any evidence of repair, with means ranging between 2 and 11%, and there were no significant differences over the 40-day treatment period (FIGS. 10C-F). In contrast, after 20, 30 or 40 days of N-[N-(3-pyridinesulfonyl)-L-3,3-dimethyl-4-thiaprolyl]-O-[1-methylpiperazin-4-ylcarbonyl]-L-tyrosine isopropyl ester treatment, the majority of lesions identified show a variable degree of remyelination ranged from 2 to 100% in the majority of lesions (mean area of remyelination approximately 50%) (FIGS. 10D-5). (p<0.001, 2-way ANOVA with Tukey test). Therefore while lesions were evident in all animals throughout the 40-day treatment period, N-[N-(3-pyridinesulfonyl)-L-3,3-dimethyl-4-thiaprolyl]-O-[1-methylpiperazin-4-ylcarbonyl]-L-tyrosine isopropyl ester increased the incidence and percentage of remyelination. Furthermore, evidence of remyelination in N-[N-(3-pyridinesulfonyl)-L-3,3-dimethyl-4-thiaprolyl]-O-[1-methylpiperazin-4-ylcarbonyl]-L-tyrosine isopropyl ester-treated animals is consistent with an observed regain of motor function. The starting point for treatment was a clinical score of 2, which denotes full bilateral hind limb paralysis. […] Functional recovery was never observed in control animals.

[3] = test system: experimental allergic encephalomyelitis in female Hartley guinea pigs; test: Chronic EAE in guinea pigs: mean cell counts in spinal cord (H-E sections); type: in vivo, guinea pig; conditions: for cell number in spinal cord vs saline-treated animals: after 10, 20, 30 or 40 days of therapy, p<0.001 two-way ANOVA; for mean cell count in spinal cord 10 days after removal vs continuous treatment: p<0.05 ANOVA on ranks with SNK test
Procedure: To quantify the abnormalities observed in the spinal cord, sections stained with H-E were divided into 12 representative pie-shaped areas. In each area, the number of cells within a 0.12 mm^2 field of view was counted using Sigma Scan Pro image analysis software (SPSS Inc.), and the combined mean number of cells in all 12 areas was calculated for the whole spinal cord (36 fields of view per animal). Note that as all cell nuclei were counted, the number of cells may include neurons and glial cells in addition to infiltrates.
Statistical Analysis. Statistical analysis was performed using SigmaStat v2 software (SPSS Inc.). Clinical scores were assessed using the Mann Whitney rank sum test, while pathological scores were assessed with a two-Way ANOVA. Quantitative abnormalities were compared using Kruskal-Wallis ANOVA on ranks. In each case, p<0.05 was considered significant. A linear regression was performed on the mean cell counts in the spinal cord.

[4] = listed as N-[N-(3-pyridinesulfonyl)-L-3,3-dimethyl-4-thiaprolyl]-O-[1-methylpiperzain-4-yl

Structure (SMILES): CC(C)OC(=O)[C@H](Cc1ccc(OC(=O)N2CCN(C)CC2)cc1)NC(=O)[C@H]1N(S(=O)(=O)c2cccnc2)CSC1(C)C [N-[N-(3-pyridinesulfonyl)-L-3,3-dimethyl-4-thiaprolyl]-O-[1-methylpiperazin-4-ylcarbonyl]-L-tyrosine isopropyl ester]
- mean clinical score vs saline-treated animals over the treatment period ([1]; 30 mg/kg 2×/day s.c. from day 40 post immunization for 10-40 days, p<0.001 Mann Whitney rank sum test): significantly lower
- start of clinical reversal following the initial treatment ([1]; 30 mg/kg twice a day s.c. from day 40 post immunization): 2 to 3 days
- adverse side effects during prolonged administration ([1]; guinea pig, 30 mg/kg 2×/day s.c. for up to 40 days, listed as N-[N-(3-pyridinesulfonyl)-L-3,3-dimethyl-4-thiaprolyl]-O-[1-methylpiperzain-4-yl, 30 mg/kg): no adverse side effects
- mean clinical score day 70-80 after withdrawal (30 days treatment, 10 days off) vs continued treatment [1]: significantly greater
- mean clinical score day 70-80 after withdrawal (30 days treatment, 10 days off) vs continued treatment [1, 4]: significantly higher
- hind limb paresis in animals with an established clinical score of 2 ([1]; reversion to a clinical score of 1 during treatment): reversed the paresis
- escape from treatment [1]: None of the animals, however, escaped from treatment
- escape from treatment [1, 4]: no escape from treatment
- percentage of plaques exhibiting remyelination (frequency of shadow plaques in the spinal cord) ([2]; after 20 days of administration): 68%
- percentage of plaques exhibiting remyelination (incidence) ([2]; after 30 days of administration): 77%
- percentage of plaques exhibiting remyelination (incidence) ([2]; after 40 days of administration): 87%
- treated animals in which paralysis was reversed to a clinical score of 1 ([2]; starting clinical score of 2 (full bilateral hind limb paralysis)): 50%
- cell number in spinal cord vs saline-treated animals [3]: significant reduction
- cell number in spinal cord vs saline-treated animals [3, 4]: fewer cells
- mean cell counts in spinal cord vs chronic control (d40) EAE animals ([3]; after 20, 30 or 40 days of treatment, p<0.05): significantly lower
- mean cell count in spinal cord vs non-EAE animals ([3]; after 40 days of treatment): not different
- mean cell count in spinal cord 10 days after removal vs continuous treatment [3]: significant increase
- mean cell count in spinal cord 10 days after removal vs continuous treatment [3, 4]: significantly increased
- rate of cell loss in spinal cord ([3]; slope of linear regression of mean cell counts (r^2=0.90)): 8 cells/mm^2/day
